Assay results reported in ChEMBL document CHEMBL1141584, “Synthesis, biological evaluation and molecular modelling studies of methyleneimidazole substituted biaryls as inhibitors of human 17alpha-hydroxylase-17,20-lyase (CYP17). Part I: Heterocyclic modifications of the core structure” (Bioorg Med Chem, 2008).

Legend:
[1] = Cmax in Wistar rat at 50 mg/kg, po; assay type: ADME, organism-based; design: dose 50 mg/kg, route oral; settings: in vivo
[2] = AUC (0 to infinity) in Wistar rat at 50 mg/kg, po; assay type: ADME, organism-based; design: time infinity, dose 50 mg/kg, route oral; settings: plasma
CYP2C19 [3] = biological target: T1, CYP2C19 (Homo sapiens, UniProt P33261); assay: Inhibition of recombinant CYP2C19 at 10 uM; assay type: ADME
[4] = Terminal half life in Wistar rat plasma at 50 mg/kg, po; assay type: ADME, organism-based; design: dose 50 mg/kg, route oral
[5] = biological target: T2, Steroid 17-alpha-hydroxylase/17,20 lyase (Homo sapiens, UniProt P05093); assay: Inhibition of human CYP17 expressed in Escherichia coli co-expressed with NADPH-P450 reductase
T2 sequence (P05093 whole entry): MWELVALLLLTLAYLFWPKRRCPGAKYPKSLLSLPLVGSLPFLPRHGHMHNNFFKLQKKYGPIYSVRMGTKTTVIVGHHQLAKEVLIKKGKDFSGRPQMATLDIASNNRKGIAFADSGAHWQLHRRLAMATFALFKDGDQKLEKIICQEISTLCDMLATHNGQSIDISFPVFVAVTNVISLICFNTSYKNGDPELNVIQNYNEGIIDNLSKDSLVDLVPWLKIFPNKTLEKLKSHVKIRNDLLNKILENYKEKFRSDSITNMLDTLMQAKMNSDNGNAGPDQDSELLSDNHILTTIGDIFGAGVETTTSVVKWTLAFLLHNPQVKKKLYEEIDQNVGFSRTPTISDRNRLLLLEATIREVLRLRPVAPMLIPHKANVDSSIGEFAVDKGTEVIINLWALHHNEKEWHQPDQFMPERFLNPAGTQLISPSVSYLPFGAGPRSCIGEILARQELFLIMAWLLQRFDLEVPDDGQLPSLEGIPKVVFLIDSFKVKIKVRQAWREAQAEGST

[6] = biological target: T3, Steroid 17-alpha-hydroxylase/17,20 lyase (Rattus norvegicus, UniProt P11715); assay: Inhibition of Sprague-Dawley rat testicular CYP17
T3 sequence (P11715 whole entry): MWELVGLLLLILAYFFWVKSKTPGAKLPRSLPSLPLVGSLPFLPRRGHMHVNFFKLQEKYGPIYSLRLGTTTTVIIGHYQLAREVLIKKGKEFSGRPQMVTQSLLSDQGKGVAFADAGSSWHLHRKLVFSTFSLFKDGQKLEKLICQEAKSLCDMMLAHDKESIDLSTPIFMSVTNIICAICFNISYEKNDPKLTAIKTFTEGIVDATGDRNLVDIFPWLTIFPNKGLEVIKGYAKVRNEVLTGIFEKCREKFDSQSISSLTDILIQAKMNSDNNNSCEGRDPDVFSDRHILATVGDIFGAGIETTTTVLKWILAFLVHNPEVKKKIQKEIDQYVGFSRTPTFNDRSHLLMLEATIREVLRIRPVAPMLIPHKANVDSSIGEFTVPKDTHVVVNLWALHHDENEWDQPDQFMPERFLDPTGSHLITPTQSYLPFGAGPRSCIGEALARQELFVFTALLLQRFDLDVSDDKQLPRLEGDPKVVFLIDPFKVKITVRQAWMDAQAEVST

CYP3A4 [7] = biological target: T4, CYP3A4 (Homo sapiens, UniProt P08684); assay: Inhibition of recombinant CYP3A4 at 1 uM; assay type: ADME
CYP1A2 [8] = biological target: T5, CYP1A2 (Homo sapiens, UniProt P05177); assay: Inhibition of recombinant CYP1A2 at 1 uM; assay type: ADME
T5 sequence (P05177 whole entry): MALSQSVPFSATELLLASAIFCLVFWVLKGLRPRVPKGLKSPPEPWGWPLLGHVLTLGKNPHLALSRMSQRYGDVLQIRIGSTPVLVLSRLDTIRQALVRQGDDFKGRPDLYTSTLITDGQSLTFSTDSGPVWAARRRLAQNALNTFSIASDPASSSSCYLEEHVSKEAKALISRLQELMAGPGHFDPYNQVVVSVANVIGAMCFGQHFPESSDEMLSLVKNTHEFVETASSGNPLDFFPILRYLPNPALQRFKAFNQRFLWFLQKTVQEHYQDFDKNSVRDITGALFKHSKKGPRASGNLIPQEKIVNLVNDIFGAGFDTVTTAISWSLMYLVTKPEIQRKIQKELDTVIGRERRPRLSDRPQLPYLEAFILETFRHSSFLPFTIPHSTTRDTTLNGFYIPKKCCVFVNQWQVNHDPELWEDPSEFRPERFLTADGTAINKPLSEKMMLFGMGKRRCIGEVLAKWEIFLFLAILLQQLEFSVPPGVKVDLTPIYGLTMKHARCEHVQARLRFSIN

CYP2C9 [9] = biological target: T6, CYP2C9 (Homo sapiens, UniProt P11712); assay: Inhibition of recombinant CYP2C9 at 1 uM; assay type: ADME
[10] = biological target: T2, Steroid 17-alpha-hydroxylase/17,20 lyase; assay: Inhibition of human CYP17 expressed in Escherichia coli co-expressed with NADPH-P450 reductase at 2 uM
Rattus norvegicus [11] = assay: Reduction of testosterone level in Wistar rat plasma at 50 mg/kg, po after 2 hrs by ELISA relative to pretreatment value; assay type: functional; design: scale not given: the % may be the effect or the level left
CYP2B6 [12] = biological target: T7, CYP2B6 (Homo sapiens, UniProt P20813); assay: Inhibition of recombinant CYP2B6 at 1 uM; assay type: ADME
T7 sequence (P20813 whole entry): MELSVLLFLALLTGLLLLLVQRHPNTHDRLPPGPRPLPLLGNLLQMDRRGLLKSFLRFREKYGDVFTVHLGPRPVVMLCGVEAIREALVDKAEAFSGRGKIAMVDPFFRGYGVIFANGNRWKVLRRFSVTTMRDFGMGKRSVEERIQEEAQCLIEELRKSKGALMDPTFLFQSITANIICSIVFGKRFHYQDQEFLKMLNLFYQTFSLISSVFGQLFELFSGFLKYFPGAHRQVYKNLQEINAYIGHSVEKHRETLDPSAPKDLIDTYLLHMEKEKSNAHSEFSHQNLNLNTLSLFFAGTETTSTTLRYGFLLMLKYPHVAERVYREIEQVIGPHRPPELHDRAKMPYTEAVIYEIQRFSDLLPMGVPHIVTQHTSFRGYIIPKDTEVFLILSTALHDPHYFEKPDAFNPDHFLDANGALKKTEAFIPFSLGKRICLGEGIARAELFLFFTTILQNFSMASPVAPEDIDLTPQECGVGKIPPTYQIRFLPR

CYP2B6 [13] = biological target: T7, CYP2B6; assay: Inhibition of recombinant CYP2B6 at 10 uM; assay type: ADME
[14] = Tmax in Wistar rat at 50 mg/kg, po; assay type: ADME, organism-based; design: dose 50 mg/kg, route oral; settings: in vivo
CYP2C9 [15] = biological target: T6, CYP2C9; assay: Inhibition of recombinant CYP2C9 at 10 uM; assay type: ADME
Rattus norvegicus [16] = assay: Reduction of testosterone level in Wistar rat plasma at 50 mg/kg, po after 1 hr by ELISA relative to pretreatment value; assay type: functional; design: scale not given: the % may be the effect or the level left
[17] = Total body clearance in Wistar rat at 50 mg/kg, po; assay type: ADME, organism-based; design: dose 50 mg/kg, route oral; settings: in vivo
Rattus norvegicus [18] = assay: Reduction of testosterone level in Wistar rat plasma at 50 mg/kg, po after 8 hrs by ELISA relative to pretreatment value; assay type: functional; design: scale not given: the % may be the effect or the level left
CYP3A4 [19] = biological target: T4, CYP3A4; assay: Inhibition of recombinant CYP3A4 at 10 uM; assay type: ADME
CYP2C19 [20] = biological target: T1, CYP2C19; assay: Inhibition of recombinant CYP2C19 at 1 uM; assay type: ADME
CYP2D6 [21] = biological target: T8, CYP2D6 (Homo sapiens, UniProt P10635); assay: Inhibition of recombinant CYP2D6 at 10 uM; assay type: ADME
CYP2D6 [22] = biological target: T8, CYP2D6; assay: Inhibition of recombinant CYP2D6 at 1 uM; assay type: ADME
[23] = biological target: T2, Steroid 17-alpha-hydroxylase/17,20 lyase; assay: Inhibition of human CYP17 expressed in Escherichia coli co-expressed with NADPH-P450 reductase at 0.2 uM
CYP1A2 [24] = biological target: T5, CYP1A2; assay: Inhibition of recombinant CYP1A2 at 10 uM; assay type: ADME
Rattus norvegicus [25] = assay: Reduction of testosterone level in Wistar rat plasma at 50 mg/kg, po after 6 hrs by ELISA relative to pretreatment value; assay type: functional; design: scale not given: the % may be the effect or the level left
Rattus norvegicus [26] = assay: Reduction of testosterone level in Wistar rat at 50 mg/kg, po after 4 hrs by ELISA relative to pretreatment value; assay type: functional; design: scale not given: the % may be the effect or the level left
Rattus norvegicus [27] = assay: Reduction of testosterone level in Wistar rat plasma at 56.02 mg/kg, po after 6 hrs by ELISA relative to pretreatment value; assay type: functional; design: scale not given: the % may be the effect or the level left
Rattus norvegicus [28] = assay: Reduction of testosterone level in Wistar rat plasma at 56.02 mg/kg, po after 4 hrs by ELISA relative to pretreatment value; assay type: functional; design: scale not given: the % may be the effect or the level left
Rattus norvegicus [29] = assay: Reduction of testosterone level in Wistar rat plasma at 56.02 mg/kg, po after 8 hrs by ELISA relative to pretreatment value; assay type: functional; design: scale not given: the % may be the effect or the level left
Rattus norvegicus [30] = assay: Reduction of testosterone level in Wistar rat plasma at 56.02 mg/kg, po after 2 hrs by ELISA relative to pretreatment value; assay type: functional; design: scale not given: the % may be the effect or the level left
Rattus norvegicus [31] = assay: Reduction of testosterone level in Wistar rat plasma at 56.02 mg/kg, po after 1 hr by ELISA relative to pretreatment value; assay type: functional; design: scale not given: the % may be the effect or the level left
[32] = biological target: T2, Steroid 17-alpha-hydroxylase/17,20 lyase; assay: Inhibition of human CYP17 expressed in Escherichia coli co-expressed with NADPH-P450 reductase at 1 uM

T1 sequence (P33261 whole entry): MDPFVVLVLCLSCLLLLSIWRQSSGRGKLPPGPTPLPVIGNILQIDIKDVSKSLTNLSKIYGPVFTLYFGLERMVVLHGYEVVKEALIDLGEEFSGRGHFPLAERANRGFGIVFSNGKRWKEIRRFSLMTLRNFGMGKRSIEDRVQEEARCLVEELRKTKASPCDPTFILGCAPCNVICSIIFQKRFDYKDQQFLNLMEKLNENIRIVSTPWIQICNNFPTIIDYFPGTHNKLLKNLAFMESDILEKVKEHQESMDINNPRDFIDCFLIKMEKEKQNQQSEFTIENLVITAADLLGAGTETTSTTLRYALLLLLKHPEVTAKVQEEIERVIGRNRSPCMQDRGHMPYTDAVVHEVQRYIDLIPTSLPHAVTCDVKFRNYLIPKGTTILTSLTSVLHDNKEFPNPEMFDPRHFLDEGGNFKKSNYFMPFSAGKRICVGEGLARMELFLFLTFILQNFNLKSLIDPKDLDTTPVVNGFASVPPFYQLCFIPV
T8 sequence (P10635 whole entry): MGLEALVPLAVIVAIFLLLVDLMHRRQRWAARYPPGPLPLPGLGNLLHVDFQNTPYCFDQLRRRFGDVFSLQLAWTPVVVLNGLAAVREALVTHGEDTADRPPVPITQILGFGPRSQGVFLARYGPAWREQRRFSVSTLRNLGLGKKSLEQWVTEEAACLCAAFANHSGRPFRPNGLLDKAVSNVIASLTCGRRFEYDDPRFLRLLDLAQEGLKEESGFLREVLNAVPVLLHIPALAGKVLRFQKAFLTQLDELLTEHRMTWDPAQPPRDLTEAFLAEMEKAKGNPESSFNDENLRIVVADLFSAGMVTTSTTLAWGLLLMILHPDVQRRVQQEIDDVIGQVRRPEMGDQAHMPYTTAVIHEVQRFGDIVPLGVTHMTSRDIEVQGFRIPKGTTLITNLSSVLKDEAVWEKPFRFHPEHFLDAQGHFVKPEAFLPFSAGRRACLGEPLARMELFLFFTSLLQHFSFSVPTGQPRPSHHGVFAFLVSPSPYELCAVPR
T6 sequence (P11712 whole entry): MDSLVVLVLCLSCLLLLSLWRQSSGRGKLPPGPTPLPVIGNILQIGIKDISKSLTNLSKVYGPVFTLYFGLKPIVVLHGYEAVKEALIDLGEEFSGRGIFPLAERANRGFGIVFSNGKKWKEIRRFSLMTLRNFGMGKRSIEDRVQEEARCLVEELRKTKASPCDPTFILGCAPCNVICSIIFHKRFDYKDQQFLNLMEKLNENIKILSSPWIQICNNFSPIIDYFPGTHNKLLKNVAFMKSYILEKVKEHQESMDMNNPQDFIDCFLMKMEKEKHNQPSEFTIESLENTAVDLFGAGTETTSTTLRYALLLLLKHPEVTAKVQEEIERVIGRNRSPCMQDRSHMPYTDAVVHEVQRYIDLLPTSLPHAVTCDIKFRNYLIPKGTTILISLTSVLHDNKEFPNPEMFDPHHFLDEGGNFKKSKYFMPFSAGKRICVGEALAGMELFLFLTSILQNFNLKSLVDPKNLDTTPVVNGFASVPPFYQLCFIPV
T4 sequence (P08684 whole entry): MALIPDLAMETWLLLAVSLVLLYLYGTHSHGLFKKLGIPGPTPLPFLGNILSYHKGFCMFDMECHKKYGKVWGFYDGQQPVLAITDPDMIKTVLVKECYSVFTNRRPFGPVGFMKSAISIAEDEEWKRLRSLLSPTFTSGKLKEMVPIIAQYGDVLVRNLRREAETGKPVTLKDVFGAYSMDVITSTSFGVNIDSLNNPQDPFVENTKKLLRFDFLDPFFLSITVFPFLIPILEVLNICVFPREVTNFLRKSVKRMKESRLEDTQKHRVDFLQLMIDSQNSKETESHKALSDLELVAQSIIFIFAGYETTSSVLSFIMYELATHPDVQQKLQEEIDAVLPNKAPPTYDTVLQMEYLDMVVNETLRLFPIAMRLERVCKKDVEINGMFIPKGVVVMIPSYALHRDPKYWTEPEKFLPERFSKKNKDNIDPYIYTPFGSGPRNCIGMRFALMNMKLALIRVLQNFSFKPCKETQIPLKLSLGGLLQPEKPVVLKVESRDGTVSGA

CCC(c1ccc(-c2ccsc2)cc1)n1ccnc1 (stereo not given)
Cmax [1]: 1740 ng/mL | AUC(0-inf) [2]: 6700 ng·h/mL | inhibition at 10 µM (CYP2C19 [3]): 100% | half-life [4]: 3.8 h | IC50 [5]: 373 nM | IC50 [6]: 562 nM | inhibition at 1 µM (CYP3A4 [7]): 88% | inhibition at 1 µM (CYP1A2 [8]): 98% | inhibition at 1 µM (CYP2C9 [9]): 81% | inhibition at 2 µM [10]: 83% | Activity (Rattus norvegicus [11]): 30.5% | inhibition at 1 µM (CYP2B6 [12]): 60% | inhibition at 10 µM (CYP2B6 [13]): 87% | Tmax [14]: 1 h | inhibition at 10 µM (CYP2C9 [15]): 74% | Activity (Rattus norvegicus [16]): 37.6% | CL/F [17]: 125 mL/min/kg | Activity (Rattus norvegicus [18]): 63% | inhibition at 10 µM (CYP3A4 [19]): 92% | inhibition at 1 µM (CYP2C19 [20]): 95% | inhibition at 10 µM (CYP2D6 [21]): 77% | inhibition at 1 µM (CYP2D6 [22]): 24% | inhibition at 0.2 µM [23]: 28% | inhibition at 10 µM (CYP1A2 [24]): 100% | Activity (Rattus norvegicus [25]): 62.6% | Activity (Rattus norvegicus [26]): 26.9%

CC(c1ccc(-c2ccsc2)cc1)n1ccnc1 (stereo not given)
Cmax [1]: 1280 ng/mL | AUC(0-inf) [2]: 24900 ng·h/mL | inhibition at 10 µM (CYP2C19 [3]): 99% | half-life [4]: 9.5 h | IC50 [5]: 953 nM | IC50 [6]: 676 nM | inhibition at 1 µM (CYP3A4 [7]): 80% | inhibition at 1 µM (CYP1A2 [8]): 97% | inhibition at 1 µM (CYP2C9 [9]): 75% | inhibition at 2 µM [10]: 67% | inhibition at 1 µM (CYP2B6 [12]): 49% | inhibition at 10 µM (CYP2B6 [13]): 87% | Tmax [14]: 1 h | inhibition at 10 µM (CYP2C9 [15]): 89% | Activity (Rattus norvegicus [16]): 30.9% | CL/F [17]: 33.5 mL/min/kg | Activity (Rattus norvegicus [18]): 34.1% | inhibition at 10 µM (CYP3A4 [19]): 94% | inhibition at 1 µM (CYP2C19 [20]): 87% | inhibition at 10 µM (CYP2D6 [21]): 68% | inhibition at 1 µM (CYP2D6 [22]): 17% | inhibition at 0.2 µM [23]: 21% | inhibition at 10 µM (CYP1A2 [24]): 100% | Activity (Rattus norvegicus [25]): 29.7% | Activity (Rattus norvegicus [26]): 25.9%

CC(=O)O[C@H]1CC[C@@]2(C)C(=CC[C@@H]3[C@@H]2CC[C@]2(C)C(c4cccnc4)=CC[C@@H]32)C1 [ABIRATERONE ACETATE]
Activity (Rattus norvegicus [27]): 43.3% | Activity (Rattus norvegicus [28]): 43.5% | Activity (Rattus norvegicus [29]): 35.6% | Activity (Rattus norvegicus [30]): 44% | Activity (Rattus norvegicus [31]): 92.5%

CC(=O)N1CCN(c2ccc(OCC3COC(Cn4ccnc4)(c4ccc(Cl)cc4Cl)O3)cc2)CC1 (stereo not given) [KETOCONAZOLE]
inhibition at 10 µM (CYP2C19 [3]): 79% | inhibition at 1 µM [32]: 19% | inhibition at 1 µM (CYP2B6 [12]): 11% | inhibition at 10 µM (CYP2B6 [13]): 57%
